Reference: US7132542B2, “Compounds for the treatment of male erectile dysfunction” (Bristol-Myers Squibb Company, priority 2003, dated 2006)

Columns and labels:
[1] = tested on: rat small intestine tissue; experiment: Relaxation of rat small intestine (ileum) segments; parameters: concentration or dose not given beside the values; conditions: integral of nifedipine-sensitive force, 30 min post-compound addition
Source text: The ability of the compounds of the invention to relax rat small intestine tissue as a model for the treatment of irritable bowel syndrome is described as follows. Male rats (Harlan, Sprague Dawley, 250–350 g) were sacrificed by decapitation. A portion of small intestine (ileum) was removed and the attached connective tissues and intestinal contents removed. The ileum was cut into segments of ≦1 cm in length. The segments were mounted longitudinally between fixed hooks in organ baths containing warm (37° C.) physiological salt solution (composition in mM: NaCl 118.4, KCl 4.7, KH2PO4 1.2, MgSO4 1.2, CaCl2 1.8, Glucose 10.1, NaHCO3 25; gassed with 95% O2/5% CO2, pH 7.4). A stable tension of ˜1.5 g was maintained in the tissue segments during the equilibration period of 45 minutes. Changes in muscle tension were measured with isometric force transducers (Grass, FT-03C) and recorded using AcqKnowledge data acquisition system (AcqKnowledge for MP100WS, Biopac Systems Inc., Goleta, Calif.). Compound or vehicle was added in the baths for 30 minutes. “Zero” active force was established at the end of the experiment using nifedipine (20 μM). The effects of compounds or vehicle on force was determined by measuring the integral of nifedipine-sensitive force (including resting tone and spontaneous contractions) pre- and 30 min post-compound (or vehicle) addition. Results are expressed as the percentage inhibition of force. DMSO vehicle inhibited force (integral) by −0.6±3.0% (n=25).

[2] = tested on: rabbit corpus cavernosum tissue; experiment: Relaxation of rabbit corpus cavernosum strips precontracted with phenylephrine; conditions: Oryctolagus cuniculus; inhibition of phenylephrine (3 μM)-induced force as compared to vehicle control; read-out: % Inhibition of force (RCC strips)
Protocol: The ability of the compounds of the invention to relax rabbit corpus cavernosum tissue as a model for the treatment of erectile dysfunction is described as follows. New Zealand white rabbits (3.4–3.7 kg) were euthanized by sodium pentobarbital (100 mg/kg) overdose. The penis from each animal was rapidly removed and immersed in a cold oxygenated modified Krebs Henseleit bicarbonate buffer. The penis' outer tunica was removed and the corpus cavernosum smooth muscle obtained and cut into strips approximately 3–5 mm long. The strips were suspended in tissue baths containing physiological salt solution (see above), and allowed to equilibrate for at least one hour under resting tension of 1.0 gram. Isometric force was measured as described above. Tissue strips were stimulated with the α-agonist phenylephrine (3 μM) and allowed to reach a steady level of force prior to the addition of test compounds. The results are expressed as the percentage inhibition of phenylephrine-induced force as compared to vehicle control.

[3] = tested on: cloned mammalian (mSlo or hSlo) BK channel; experiment: Assay for BK channel openers: two-electrode voltage clamp of BK-mediated outward current in Xenopus oocytes; assay type: cell-based; conditions: percent increase over BK current in controls, voltage step to +140 mV, IBTX-sensitive current
Protocol: The ability of the compounds of the invention to open BK channels and increase whole-cell outward (K^+) BK-mediated currents was assessed under voltage-clamp conditions by determining their ability to increase cloned mammalian (mSlo or hSlo) BK-mediated outward current heterologously expressed in Xenopus oocytes [Butler, A., et al., Science 1993, 261, 221–224; Dworetzky, S. I., et al., Mol. Brain Res. 1994, 27, 189–193; Gribkoff, V. K., et al., Mol. Pharmacol. 1996, 50, 206–217]. The two BK constructs employed represent nearly structurally identical homologous proteins, and have proven to be pharmacologically indistinguishable in our tests. To isolate BK current from native (background, non-BK) current, the specific and potent BK channel-blocking toxin iberiotoxin (IBTX) [Galvez, A., et al., J. Biol. Chem. 1990, 265, 11083–11090] was employed at a supramaximal concentration, e.g., 50–100 nanomolar (“nM”). The relative contribution of BK channel-mediated current to total outward current was determined by subtraction of the current remaining in the presence of IBTX (non-BK current) from the current profiles obtained in all other experimental conditions (control, drug, and wash) [Gribkoff, V. K. et al., Mol. Pharmacol. 1996, 50, 206–217]. […] All compounds were tested in 5–10 oocytes and are reported at the indicated concentration of 20 micromolar (“μM”) (or as otherwise indicated); the effect of the selected compounds of the invention on BK current was expressed as the percent of control IBTX-sensitive current at a single transmembrane voltage (+140 mV) and is listed in Table 1. Recordings were accomplished using standard two-electrode voltage clamp techniques [Stuhmer, W., et al., Methods in Enzymology, 1992, 207, 319–339]; voltage-clamp protocols consisted of 500–750 milliseconds (“ms”) duration step depolarizations, from a holding potential of −60 mV, to a final voltage up to +140 mV in 20 mV steps. The experimental media (modified Barth's solution) consisted of millimolar (“mM”): NaCl (88), NaHCO3 (2.4), KCl (1.0), HEPES (10), MgSO4 (0.82), Ca(NO3)2 (0.33), CaCl2 (0.41); pH 7.5.

## CN1CCN(CCC(=O)Nc2ccc(Sc3c(-c4cc(Cl)ccc4O)c4cc(C(F)(F)F)ccc4[nH]c3=O)cc2)CC1 [Example 11, N-[4-[[4-(5-chloro-2-hydroxyphenyl)-1,2-dihydro-2-oxo-6-(trifluoromethyl)-3-quinolinyl]thio]phenyl]-4-methyl-1-piperazinepropanamide]
[1]
  % Inhibition of force (RSI strips): 70%
[2]
  inhibition: 30%
[3]; at 20 μM
  % MaxiK opening: 474%

## O=C(CN1CCCC1)Nc1ccc(Sc2c(-c3cc(Cl)ccc3O)c3cc(C(F)(F)F)ccc3[nH]c2=O)cc1 [Example 6, N-[4-[[4-(5-chloro-2-hydroxyphenyl)-1,2-dihydro-2-oxo-6-(trifluoromethyl)-3-quinolinyl]thio]phenyl]-1-pyrrolidineacetamide]
[2]
  inhibition: 28%
[3]; at 20 μM
  % MaxiK opening: 291%

## CN(C)C1CCN(CC(=O)Nc2ccc(Sc3c(-c4cc(Cl)ccc4O)c4cc(C(F)(F)F)ccc4[nH]c3=O)cc2)CC1 [Example 10, N-[4-[[4-(5-chloro-2-hydroxyphenyl)-1,2-dihydro-2-oxo-6-(trifluoromethyl)-3-quinolinyl]thio]phenyl]-4-(dimethylamino)-1-piperidineacetamide]
[1]
  % Inhibition of force (RSI strips): 54%
[2]
  inhibition: 19%
[3]; at 20 μM
  % MaxiK opening: 292%

## O=C(CCN1CCCC1)Nc1ccc(Sc2c(-c3cc(Cl)ccc3O)c3cc(C(F)(F)F)ccc3[nH]c2=O)cc1 [Example 4, N-{4-[4-(5-Chloro-2-hydroxy-phenyl)-2-oxo-6-trifluoromethyl-1,2-dihydro-quinolin-3-ylsulfanyl]-phenyl}-3-pyrrolidin-1-yl-propionamide]
[2]
  inhibition: 35%
[3]; at 20 μM
  % MaxiK opening: 264%

## O=C(CCCN1CCN(c2ccccn2)CC1)Nc1ccc(Sc2c(-c3cc(Cl)ccc3O)c3cc(C(F)(F)F)ccc3[nH]c2=O)cc1 [Example 16, N-[4-[[4-(5-chloro-2-hydroxyphenyl)-1,2-dihydro-2-oxo-6-(trifluoromethyl)-3-quinolinyl]thio]phenyl]-4-(2-pyridinyl)-1-piperazinebutanamide]
[2]
  inhibition: 37%
[3]; at 1 μM
  % MaxiK opening: 197^⋄ %

## O=C(CCN1CCN(c2ccccn2)CC1)Nc1ccc(Sc2c(-c3cc(Cl)ccc3O)c3cc(C(F)(F)F)ccc3[nH]c2=O)cc1 [Example 14, N-[4-[[4-(5-chloro-2-hydroxyphenyl)-1,2-dihydro-2-oxo-6-(trifluoromethyl)-3-quinolinyl]thio]phenyl]-4-(2-pyridinyl)-1-piperazinepropanamide]
[1]
  % Inhibition of force (RSI strips): 24%
[2]
  inhibition: 37%
[3]; at 1 μM
  % MaxiK opening: 169^⋄ %

## O=C(CCN1CCOCC1)Nc1ccc(Sc2c(-c3cc(Cl)ccc3O)c3cc(C(F)(F)F)ccc3[nH]c2=O)cc1 [Example 3, N-{4-[4-(5-Chloro-2-hydroxy-phenyl)-2-oxo-6-trifluoromethyl-1,2-dihydro-quinolin-3-ylsulfanyl]-phenyl}-3-morpholin-4-yl-propionamide]
[1]
  % Inhibition of force (RSI strips): 50%
[2]
  inhibition: 22%
[3]; at 20 μM
  % MaxiK opening: 453%

## O=C(CN1CCOCC1)Nc1ccc(Sc2c(-c3cc(Cl)ccc3O)c3cc(C(F)(F)F)ccc3[nH]c2=O)cc1 [Example 1, N-{4-[4-(5-Chloro-2-hydroxy-phenyl)-2-oxo-6-trifluoromethyl-1,2-dihydro-quinolin-3-ylsulfanyl]-phenyl}-2-morpholin-4-yl-acetamide]
[1]
  % Inhibition of force (RSI strips): 51%
[2]
  inhibition: 34%
[3]; at 1 μM
  % MaxiK opening: 296^⋄ %

## O=C(CCCN1CCC(N2CCCCC2)CC1)Nc1ccc(Sc2c(-c3cc(Cl)ccc3O)c3cc(C(F)(F)F)ccc3[nH]c2=O)cc1 [Example 15, N-[4-[[4-(5-chloro-2-hydroxyphenyl)-1,2-dihydro-2-oxo-6-(trifluoromethyl)-3-quinolinyl]thio]phenyl]-[1,4′-bipiperidine]-1′-butanamide]
[3]; at 20 μM
  % MaxiK opening: 268%

## O=C(CN1CCC(N2CCCCC2)CC1)Nc1ccc(Sc2c(-c3cc(Cl)ccc3O)c3cc(C(F)(F)F)ccc3[nH]c2=O)cc1 [Example 8, N-[4-[[4-(5-chloro-2-hydroxyphenyl)-1,2-dihydro-2-oxo-6-(trifluoromethyl)-3-quinolinyl]thio]phenyl]-[1,4′-bipiperidine]-1′-acetamide]
[2]
  inhibition: 45%
[3]; at 20 μM
  % MaxiK opening: 283%

## O=C(CCCN1CCCC1)Nc1ccc(Sc2c(-c3cc(Cl)ccc3O)c3cc(C(F)(F)F)ccc3[nH]c2=O)cc1 [Example 5, N-{4-[4-(5-Chloro-2-hydroxy-phenyl)-2-oxo-6-trifluoromethyl-1,2-dihydro-quinolin-3-ylsulfanyl]-phenyl}-4-pyrrolidin-1-yl-butyramide]
[1]
  % Inhibition of force (RSI strips): 65%
[2]
  inhibition: 36%
[3]; at 20 μM
  % MaxiK opening: 280%

## CN(C)CCN(C)CCC(=O)Nc1ccc(Sc2c(-c3cc(Cl)ccc3O)c3cc(C(F)(F)F)ccc3[nH]c2=O)cc1 [Example 12, N-[4-[[4-(5-chloro-2-hydroxyphenyl)-1,2-dihydro-2-oxo-6-(trifluoromethyl)-3-quinolinyl]thio]phenyl]-3-[[2-(dimethylamino)ethyl]methylamino]propanamide]
[2]
  inhibition: 29%
[3]; at 20 μM
  % MaxiK opening: 489%

## O=C(CN1CCN(c2ccccn2)CC1)Nc1ccc(Sc2c(-c3cc(Cl)ccc3O)c3cc(C(F)(F)F)ccc3[nH]c2=O)cc1 [Example 9, N-[4-[[4-(5-chloro-2-hydroxyphenyl)-1,2-dihydro-2-oxo-6-(trifluoromethyl)-3-quinolinyl]thio]phenyl]-4-(2-pyridinyl)-1-piperazineacetamide]
[2]
  inhibition: 17%
[3]; at 10 μM
  % MaxiK opening: 116^⋄⋄ %

## O=C(CCN1CCC(N2CCCCC2)CC1)Nc1ccc(Sc2c(-c3cc(Cl)ccc3O)c3cc(C(F)(F)F)ccc3[nH]c2=O)cc1 [Example 13, N-[4-[[4-(5-chloro-2-hydroxyphenyl)-1,2-dihydro-2-oxo-6-(trifluoromethyl)-3-quinolinyl]thio]phenyl]-[1,4′-bipiperidine]-1′-propanamide]
[1]
  % Inhibition of force (RSI strips): 78%
[2]
  inhibition: 23%
[3]; at 20 μM
  % MaxiK opening: 255%

## CN1CCN(CC(=O)Nc2ccc(Sc3c(-c4cc(Cl)ccc4O)c4cc(C(F)(F)F)ccc4[nH]c3=O)cc2)CC1 [Example 2, N-{4-[4-(5-Chloro-2-hydroxy-phenyl)-2-oxo-6-trifluoromethyl-1,2-dihydro-quinolin-3-ylsulfanyl]-phenyl}-2-(4-methyl-piperazin-1-yl)-acetamide]
[1]
  % Inhibition of force (RSI strips): 36%
[2]
  inhibition: 19%
[3]; at 20 μM
  % MaxiK opening: 246%
